# Measured values published in paper PMC8688152, “Distinct classes of potassium channels fused to GPCRs as electrical signaling biosensors” (Cell Reports Methods, 2021).
# Columns and labels:
# [1] = biological target: T1, M2_T-00-43 (UniProt P08172+P97438); experiment: Whole-cell patch-clamp on HEK293 cells expressing M2_T-00-43; type: cell-based, human (M2), mouse (TREK-1); parameters: expressed in transfected cells; host or cells: HEK293 (pIRES2-eGFP vector)
# T1 sequence (P08172+P97438 with tags, fused parts or gaps): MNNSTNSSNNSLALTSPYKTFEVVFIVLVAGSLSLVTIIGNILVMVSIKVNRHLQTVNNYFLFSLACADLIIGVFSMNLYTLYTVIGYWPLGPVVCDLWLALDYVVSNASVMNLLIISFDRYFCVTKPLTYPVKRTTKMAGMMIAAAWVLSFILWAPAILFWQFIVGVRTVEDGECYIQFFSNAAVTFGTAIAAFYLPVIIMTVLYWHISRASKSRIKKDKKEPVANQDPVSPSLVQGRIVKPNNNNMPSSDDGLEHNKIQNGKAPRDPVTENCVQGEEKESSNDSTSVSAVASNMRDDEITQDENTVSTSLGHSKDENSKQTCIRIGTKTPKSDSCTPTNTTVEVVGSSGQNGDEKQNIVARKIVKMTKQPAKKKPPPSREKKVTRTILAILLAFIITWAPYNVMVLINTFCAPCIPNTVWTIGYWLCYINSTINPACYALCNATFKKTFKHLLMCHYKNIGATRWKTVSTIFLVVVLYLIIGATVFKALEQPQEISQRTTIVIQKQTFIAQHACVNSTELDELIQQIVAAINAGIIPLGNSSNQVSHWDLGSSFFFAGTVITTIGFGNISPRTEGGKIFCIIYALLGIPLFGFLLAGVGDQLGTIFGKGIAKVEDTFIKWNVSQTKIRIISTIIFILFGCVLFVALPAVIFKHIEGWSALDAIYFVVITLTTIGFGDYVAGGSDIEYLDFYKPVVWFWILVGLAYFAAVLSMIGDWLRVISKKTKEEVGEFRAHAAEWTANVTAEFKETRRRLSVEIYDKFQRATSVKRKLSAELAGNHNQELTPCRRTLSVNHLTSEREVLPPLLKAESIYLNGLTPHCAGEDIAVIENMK
# Method: HEK293 cells were grown in 75-mm tissue-culture dishes (Falcon, Franklin Lakes, NJ) in Dulbecco’s modified Eagle’s medium (Gibco, Life Technologies, Saint Aubin, France) supplemented with 10% fetal calf serum (Hyclone, Thermo Fisher Scientific GMBH, Ulm, Germany) and 1% penicillin/streptomycin (Gibco, Life Technologies, Saint Aubin, France) in a humidified incubator at 37 °C (5% CO2). For electrophysiology of ICCRs, […] of plasmid was transfected using Jet-PEI (PolyPlus Transfection, Illkirch FRANCE) according to the manufacturer’s instructions. Cells were plated onto 35-mm dishes 24 h before transfection, and experiments were performed over the following 1–2 days.
# Pipettes were pulled from hematocrit-capillaries (Hirschmann Laborgeraete, Germany) using a vertical puller (PC-10, Narishige International, London, United Kingdom), and had resistances of 3–6 MΩ when filled with internal solution and measured in standard bath solution. Whole cell membrane currents were measured and filtered at 3 kHz by a MultiClamp 700A patch clamp amplifier (Molecular Devices), and digitized at 10 kHz using a 12-bit analog-to-digital converter Digidata-1322A (Axon Instrument, Sunnyvale, CA, United States). Recordings were done using Clampex 9 software (Axon Instrument). […]
# [2] = biological target: T2, mTREK-1 −43 (Mus musculus, UniProt P97438); experiment: TEVC control: unfused N-terminally truncated mTREK-1 −43; type: cell-based; conditions: 10 μM BL1249, TEVC
# T2 construct: expressed in transfected cells; host or cells: Xenopus oocytes (mRNA injection); gene synthesized by GeneCust
# Method: (§1) Microelectrodes were filled with […]. […] The membrane voltage was clamped to −50 mV.
# [3] = system: M2_Kir6.2-09-25; parameters: method as in Moreau et al., 2017; conditions: Kir6.2 ICCRs; ref Moreau et al., 2017; read-out: IC50 observed with Kir6.2 ICCRs; cited from earlier work
# [4] = biological target: T1, M2_T-00-43; experiment: TEVC recording of M2_T-00-43 ICCR in Xenopus oocytes; type: cell-based, human (M2), mouse (TREK-1); parameters: full-length (−00) or M2 deleted of its last nine residues (−09) in the indicated ICCRs; expressed in transfected cells; host or cells: Xenopus oocytes (mRNA injection)
# Method: (§2) Xenopus oocytes were prepared as previously reported ([Moreau et al., 2008]). Briefly, after surgical retrieval, the oocytes were defolliculated by type 1A collagenase. Each oocyte was injected with 50 nl of RNAse-free water containing the desired mRNAs. The mRNA quantities used per oocyte were: ICCR with Kcv, 2.7 ng (M2_Kcv and D2_Kcv) and 2.9 ng (OXTR_Kcv); ICCR with mTREK-1, 4.2 ng; ICCR with Kir6.2, 4.3 ng; M2, 2.3 ng; D2, 2.2 ng; Kir3.4T, 2.2 ng; Kcv 0.46 ng and mTREK-1, 2.1 ng. Microinjected oocytes were incubated 2 to 3 days at 19°C in modified-Barth's solution (in mM: 1 KCl, 0.82 MgSO4, 88 NaCl, 2.4 NaHCO3, 0.41 CaCl2, 16 HEPES, pH 7.4) supplemented with 100 U.ml^−1 of penicillin and streptomycin and 0.1 mg.mL^−1 of gentamycin. Animal handling and experiments fully conformed to European regulations and were approved by the French Ministry of Higher Education and Research (APAFIS#4420-2016030813053199 v4 to CM). Authorization of the animal facility has been delivered by the Prefect of Isere (Authorization #D 38 185 10 001).
# (§3) Two-electrode voltage-clamp (TEVC) recordings were performed automatically with HiClamp robots (MultiChannel Systems). These TEVC robots rapidly change the applied solutions by transferring the oocytes in different wells of a 96-well plate. […] Microelectrodes were filled with […]. During recordings, oocytes were incubated in low potassium concentration buffer (ND96, in mM: 96 NaCl, 2 KCl, 1.8 CaCl2, 1 MgCl2, 5 HEPES, pH 7.4 supplemented with 0.3 niflumic acid), and in high potassium buffer (in mM: 91 KCl, 1.8 CaCl2, 1 MgCl2, 5 HEPES, 0.3 niflumic acid, pH 7.4). The membrane voltage was clamped to −50 mV. Ligands and BaCl2 were diluted in the high potassium buffer. […] Ligand effects were measured in high potassium concentration buffer with the membrane potential clamped to −50 mV and at 19°C.
# (§4) Change of potassium current induced by ligand was calculated either with the barium-sensitive currents as a 0-reference for Kcv-based ICCRs or with the currents in ND96 for mTREK-1 ICCRs. Softwares created by Michel Vivaudou ([Vivaudou, 2019]) were used to extract the raw data.
# [5] = biological target: T3, M2_Kcv-09-03 (UniProt P08172+Q84568); experiment: TEVC recording of M2_Kcv-09-03 ICCR expressed in Xenopus oocytes; type: cell-based, human (M2), Paramecium bursaria chlorella virus 1 (Kcv)
# T3 construct: expressed in transfected cells; host or cells: Xenopus oocytes (mRNA injection)
# T3 sequence (P08172+Q84568 with tags, fused parts or gaps): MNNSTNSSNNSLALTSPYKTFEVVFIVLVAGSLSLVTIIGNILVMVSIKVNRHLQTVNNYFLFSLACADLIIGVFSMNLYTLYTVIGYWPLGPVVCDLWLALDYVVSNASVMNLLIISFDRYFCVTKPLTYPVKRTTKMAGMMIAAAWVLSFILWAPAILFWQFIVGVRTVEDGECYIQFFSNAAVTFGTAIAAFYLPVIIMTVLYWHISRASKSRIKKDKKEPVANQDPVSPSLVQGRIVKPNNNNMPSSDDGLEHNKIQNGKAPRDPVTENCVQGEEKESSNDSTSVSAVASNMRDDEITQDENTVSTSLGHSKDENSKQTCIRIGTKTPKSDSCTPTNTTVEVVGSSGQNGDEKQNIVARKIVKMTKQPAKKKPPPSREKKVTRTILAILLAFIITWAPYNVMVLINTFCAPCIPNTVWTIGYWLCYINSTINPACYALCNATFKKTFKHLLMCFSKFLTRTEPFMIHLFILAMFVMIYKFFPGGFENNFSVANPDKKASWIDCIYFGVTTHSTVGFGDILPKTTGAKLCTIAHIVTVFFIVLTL
# Method: as §1
# [6] = system: D2_K+09M2-25; conditions: read-out: EC50 on the equivalent Kir6.2 ICCR (D2_K+09M2-25); ref Moreau et al., 2008; cited from earlier work
# [7] = biological target: D2_T-00-43 (UniProt P14416+P97438); conditions: weak inhibition, mean ± SEM
# Method: as §2, §3, §4
# [8] = biological target: unfused D2L and mTREK-1 (D2+mTREK-1) (Homo sapiens, UniProt P14416); conditions: control with co-expression of the unfused proteins, mean ± SEM
# Method: as §2, §3, §4
# [9] = system: Kir3.4T co-expressed with D2_Kcv-00-03; conditions: TEVC, Xenopus oocytes
# Method: as §2, §3, §4
# [10] = biological target: D2_T+09M2-43 (UniProt P14416+P97438); conditions: TEVC
# Method: as §2, §3, §4
# [11] = system: OXTR[T4L]_Kcv-42-03; experiment: TEVC recording of OXTR[T4L]_Kcv-42-03 in Xenopus oocytes; type: cell-based, human (OXTR), Paramecium bursaria chlorella virus 1 (Kcv)
# Method: as §2, with “Authorization of the animal facility has been delivered by the Prefect of Isere (Authorization #D 38 185 10 001).” left out
# Two-electrode voltage-clamp (TEVC) recordings were performed automatically with HiClamp robots (MultiChannel Systems). […] Ligand effects were measured in high potassium concentration buffer with the membrane potential clamped to −50 mV and at 19°C.
# Change of potassium current induced by ligand was calculated either with the barium-sensitive currents as a 0-reference for Kcv-based ICCRs or with the currents in ND96 for mTREK-1 ICCRs. […]
# [12] = concentration-effect curve, TEVC
# Sequence of D2_T+09M2-43 (P14416+P97438 fused): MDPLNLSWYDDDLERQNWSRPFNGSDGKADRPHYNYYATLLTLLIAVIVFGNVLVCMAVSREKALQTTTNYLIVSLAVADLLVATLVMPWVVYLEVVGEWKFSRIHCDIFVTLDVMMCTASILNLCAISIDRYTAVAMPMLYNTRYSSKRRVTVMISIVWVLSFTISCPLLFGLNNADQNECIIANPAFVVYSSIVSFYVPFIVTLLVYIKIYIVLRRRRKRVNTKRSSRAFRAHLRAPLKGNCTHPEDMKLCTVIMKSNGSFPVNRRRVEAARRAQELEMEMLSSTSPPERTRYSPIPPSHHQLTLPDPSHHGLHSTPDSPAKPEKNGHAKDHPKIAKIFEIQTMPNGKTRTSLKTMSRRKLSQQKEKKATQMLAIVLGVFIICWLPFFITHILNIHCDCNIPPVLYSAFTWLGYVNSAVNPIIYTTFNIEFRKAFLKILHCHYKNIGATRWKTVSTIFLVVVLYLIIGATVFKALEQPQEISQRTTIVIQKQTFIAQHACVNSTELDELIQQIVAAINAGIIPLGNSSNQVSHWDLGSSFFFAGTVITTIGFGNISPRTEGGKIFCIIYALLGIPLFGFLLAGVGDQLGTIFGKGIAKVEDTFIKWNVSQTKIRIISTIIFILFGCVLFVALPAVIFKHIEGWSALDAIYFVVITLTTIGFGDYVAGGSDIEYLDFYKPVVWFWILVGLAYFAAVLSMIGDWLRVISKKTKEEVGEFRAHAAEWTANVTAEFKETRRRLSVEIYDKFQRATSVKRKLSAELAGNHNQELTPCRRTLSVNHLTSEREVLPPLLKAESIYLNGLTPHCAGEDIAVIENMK
# Sequence of D2_T-00-43 (P14416+P97438 fused): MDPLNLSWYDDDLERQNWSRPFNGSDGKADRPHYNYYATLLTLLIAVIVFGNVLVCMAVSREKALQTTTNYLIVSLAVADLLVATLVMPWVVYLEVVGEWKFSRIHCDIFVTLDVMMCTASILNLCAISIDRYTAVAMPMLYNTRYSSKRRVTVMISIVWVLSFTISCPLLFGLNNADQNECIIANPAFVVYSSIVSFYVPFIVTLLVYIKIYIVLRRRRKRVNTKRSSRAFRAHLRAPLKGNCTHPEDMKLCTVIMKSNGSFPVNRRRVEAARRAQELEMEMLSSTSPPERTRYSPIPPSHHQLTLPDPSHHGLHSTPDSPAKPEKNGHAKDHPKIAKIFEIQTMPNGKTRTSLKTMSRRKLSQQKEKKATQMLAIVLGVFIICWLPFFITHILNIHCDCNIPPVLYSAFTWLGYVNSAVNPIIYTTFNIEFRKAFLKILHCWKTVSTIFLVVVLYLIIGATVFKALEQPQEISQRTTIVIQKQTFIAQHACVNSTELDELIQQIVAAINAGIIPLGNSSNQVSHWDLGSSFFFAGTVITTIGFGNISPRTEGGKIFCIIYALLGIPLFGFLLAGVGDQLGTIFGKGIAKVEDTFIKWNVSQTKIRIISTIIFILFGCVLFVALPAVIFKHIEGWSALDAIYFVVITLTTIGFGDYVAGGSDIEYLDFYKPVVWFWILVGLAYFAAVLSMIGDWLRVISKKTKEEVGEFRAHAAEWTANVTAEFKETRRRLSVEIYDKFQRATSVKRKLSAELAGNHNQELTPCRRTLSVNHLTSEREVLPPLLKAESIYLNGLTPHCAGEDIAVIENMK
# Sequence of unfused D2L and mTREK-1 (D2+mTREK-1) (P14416 whole entry, the tested form may be a part): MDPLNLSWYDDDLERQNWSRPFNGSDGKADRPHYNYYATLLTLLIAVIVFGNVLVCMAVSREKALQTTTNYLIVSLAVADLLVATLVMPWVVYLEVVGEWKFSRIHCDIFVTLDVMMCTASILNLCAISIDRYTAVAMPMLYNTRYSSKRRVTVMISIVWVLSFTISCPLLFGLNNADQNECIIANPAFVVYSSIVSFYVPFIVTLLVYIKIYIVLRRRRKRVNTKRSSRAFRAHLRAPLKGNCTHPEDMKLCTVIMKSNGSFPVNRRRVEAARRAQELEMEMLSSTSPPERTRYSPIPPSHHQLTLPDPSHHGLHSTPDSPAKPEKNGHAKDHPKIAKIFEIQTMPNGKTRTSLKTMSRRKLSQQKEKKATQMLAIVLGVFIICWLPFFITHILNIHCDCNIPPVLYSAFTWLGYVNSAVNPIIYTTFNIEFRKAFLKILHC
compound,measurement,setting,value
c1ccc(-c2nn[nH]n2)c(Nc2cccc3c2CCCC3)c1 [BL1249],activation of M2_T-00-43: increase of the current,"[1]; 10 μM BL1249, mean ± SEM",880% ± 190%
same,"activation of unfused truncated mTREK-1 −43 by BL1249, compared with WT channel",[2],lower activation
"C[N+](C)(C)CCOC(N)=O [CCh, carbachol]",IC50,[3],1200 nM
same,Hill coefficient (nH) on M2_T-00-43,[4]; [12],0.97
same,Hill coefficient (nH) on M2_Kcv-09-03,[5]; [12],0.98
CN1[C@@H]2CC[C@H]1C[C@@H](OC(=O)C(CO)c1ccccc1)C2 (stereo partly drawn) [atropine],effect of atropine co-application on ACh-induced activation of M2_T-00-43,[4],inhibited ACh-induced activation
same,effect of atropine co-application on the ACh response of M2_Kcv-09-03,[5]; 1 μM atropine co-applied with ACh 5 μM,almost entirely abolished the ACh response
NCCc1ccc(O)c(O)c1 [dopamine],EC50,[6],400 nM
same,% of current change induced by 5 μM dopamine on D2_T-00-43,[7],−4.1% ± 0.6%
same,% of current change induced by 5 μM dopamine on unfused D2 + mTREK-1,[8],−2.2% ± 1.3%
same,G protein activation (Kir3.4T) by D2_Kcv-00-03 upon dopamine application,[9],triggers the activation of the endogenous Gi/o proteins
same,activation: % of current change induced by 5 μM dopamine on D2_T+09M2-43,"[10]; 5 μM, Xenopus oocytes, mean ± SEM",12.1% ± 1.7%
same,Hill coefficient (nH) on D2_T+09M2-43,[10]; concentration-effect curve,0.76
oxytocin,response of OXTR[T4L]_Kcv-42-03 to oxytocin,[11],did not induce any response
spadin,inhibition of BL1249 activation of M2_T-00-43,"[1]; 1 μM spadin with 10 μM BL1249, mean ± SEM",56.8% ± 9.1%
